Reference: publication PMC8251996 (2021)

Columns and labels:
ds6 (DNA, duplex) CGTACG = assay: fluorescence titration, independent equivalent sites; settings: Na+ (100 mM NaCl, 10 mM sodium phosphate); buffer not in material
[1] = tested on: ds10 (DNA, duplex) AAGAATTCTT; assay: as above; settings: Na+ (100 mM NaCl, 10 mM sodium phosphate); buffer not in material

| K b (ds6 (DNA, duplex) CGTACG) | K b [1] | Compound |
| --- | --- | --- |
| (1.2±0.5)×10^6 M^-1 | (1.6±0.9)×10^6 M^-1 | COc1cc(/C=C/c2ccc(O)cc2)cc(OC)c1 |
| (1.6±1.4)×10^6 M^-1 | (1.6±1.3)×10^6 M^-1 | Oc1ccc(/C=C/c2cc(O)cc(O)c2)cc1 |
